Experiment [1] deals with T1, human IDO (IDO1-expressing HEK293 cells) (Homo sapiens, UniProt P14902).
T1 construct: expressed in transfected cells
Kind of experiment: Cell based kynurenine assay, IDO1-expressing HEK293 cell clones. The conditions noted are these: IDO1-expressing HEK293 cells, 24 hours incubation; geometric mean; read-out: HEK293 IDO1 Kynurenine GMean IC50 (μM) (Cellular Assay). The gist of the method: (§1)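 Steps: seed IDO1- or TDO-expressing HEK293 cells at 2.5×10^4 per well; add compound dilutions; incubate 24 h; transfer supernatant and determine kynurenine; derive IC50 via nonlinear regression of percent inhibition.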

Experiment [2] addresses T2, Human Tryptophan 2,3-dioxygenase (TDO) (Homo sapiens, UniProt P48775).
T2 construct: His tag (N); made in house; host or cells: E. coli
Kind of experiment: Human TDO enzymatic assay (kynurenine level). It is filed as biochemical. The conditions noted are these: 1 nM TDO, 350 μM L-Trp; geometric mean; read-out: TDO GMean: IC50 (μM) (Biochemical Assay). The procedure, abridged: (§2)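 IDO conditions: 6 nM His-IDO, 10 μM L-Trp, 5 μM methylene blue, 20 min, RT. TDO conditions: 1 nM His-TDO, 350 μM L-Trp, 0.4 μM methylene blue, 70 min, RT. Both used pH 6.5 phosphate plus ascorbate/catalase, TCA stop at 50° C, kynurenine readout, nonlinear-regression IC50.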

Experiment [3] deals with T3, human TDO (TDO-expressing HEK293 cells) (Homo sapiens, UniProt P48775).
T3 construct: expressed in transfected cells
T3 sequence (P48775 whole entry): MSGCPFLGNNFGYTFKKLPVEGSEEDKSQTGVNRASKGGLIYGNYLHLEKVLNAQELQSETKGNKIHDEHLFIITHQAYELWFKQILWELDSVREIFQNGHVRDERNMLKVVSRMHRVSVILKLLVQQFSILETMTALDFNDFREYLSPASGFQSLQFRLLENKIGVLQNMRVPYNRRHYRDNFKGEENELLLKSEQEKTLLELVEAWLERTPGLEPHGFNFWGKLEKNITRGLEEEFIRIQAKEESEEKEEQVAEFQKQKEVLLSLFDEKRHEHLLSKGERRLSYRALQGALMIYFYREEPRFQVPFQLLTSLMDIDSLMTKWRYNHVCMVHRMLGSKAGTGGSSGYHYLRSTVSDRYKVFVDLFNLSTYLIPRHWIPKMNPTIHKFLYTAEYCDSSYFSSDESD
Kind of experiment: Cell based kynurenine assay, TDO-expressing HEK293 cell clones. The conditions noted are these: TDO-expressing HEK293 cells, 24 hours incubation; geometric mean; read-out: HEK293 TDO Kynurenine GMean IC50 (μM) (Cellular Assay). The gist of the method: as §1

Experiment [4] concerns the target T4, Human Indoleamine 2,3-dioxygenase (IDO) (Homo sapiens, UniProt P14902).
T4 construct: His tag (N); made in house; host or cells: E. coli
Kind of experiment: Human IDO enzymatic assay (kynurenine level). It is filed as biochemical. The conditions noted are these: 6 nM IDO, 10 μM L-Trp; geometric mean; read-out: IDO1 GMean: IC50 (μM) (Biochemical Assay). The gist of the method: as §2

A value given as a limit tells only on which side of the number the result lay.

T2 sequence (P48775 whole entry): as above
T4 sequence (P14902 whole entry): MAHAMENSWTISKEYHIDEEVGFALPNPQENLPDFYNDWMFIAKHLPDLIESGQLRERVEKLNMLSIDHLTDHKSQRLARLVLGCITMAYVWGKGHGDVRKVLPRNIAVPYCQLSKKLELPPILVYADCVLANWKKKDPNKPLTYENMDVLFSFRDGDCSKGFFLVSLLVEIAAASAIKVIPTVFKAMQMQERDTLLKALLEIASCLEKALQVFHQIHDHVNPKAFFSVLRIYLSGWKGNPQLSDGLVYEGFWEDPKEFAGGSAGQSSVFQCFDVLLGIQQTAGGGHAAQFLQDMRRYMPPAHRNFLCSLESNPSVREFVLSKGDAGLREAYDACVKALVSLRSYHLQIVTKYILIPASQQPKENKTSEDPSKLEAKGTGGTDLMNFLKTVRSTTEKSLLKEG
T1 sequence (P14902 whole entry): as above

For `CC1(C)[C@H]2CCC3(CC(O)(c4cc(Cl)cc5cn[nH]c45)C3)[C@@H]1C2` (stereo partly drawn) [Compound P-0190], the IC50 in experiment [1], in experiment [2], in experiment [3] and in experiment [4] was 0.0001 to 10 µM each time.
As to `CC(C)(C1CCOCC1)C(O)c1cc(Cl)cc2cn[nH]c12` (stereo not drawn) [Compound P-0191, 1-(5-chloro-1H-indazol-7-yl)-2-methyl-2-(tetrahydro-2H-pyran-4-yl)propan-1-ol], the IC50 in experiment [1], in experiment [2], in experiment [3] and in experiment [4] was 0.0001 to 10 µM throughout.
Regarding `OC(c1cc(Cl)cc2cn[nH]c12)C(F)(F)C1CCOCC1` (stereo not drawn) [Compound P-0192, 1-(5-chloro-1H-indazol-7-yl)-2,2-difluoro-2-(tetrahydro-2H-pyran-4-yl)ethan-1-ol], the IC50 in experiment [1], in experiment [2], in experiment [3] and in experiment [4] was 0.0001 to 10 µM in each case.
Take `CC1(C)C2CCC(C2)[C@]12C[C@@](O)(c1cc(Cl)cc3cn[nH]c31)C2` (stereo partly drawn) [Compound P-0193, (2s,3′s)-3′-(5-chloro-1H-indazol-7-yl)-3,3-dimethylspiro[bicyclo[2.2.1]heptane-2,1′-cyclobutan]-3′-ol]: the IC50 in experiment [1], in experiment [2], in experiment [3] and in experiment [4] was 0.0001 to 10 µM each time.
`OC(c1cc(Cl)cc2cn[nH]c12)C1(C(F)F)CCC1` (stereo not drawn) [Compound P-0194, (5-chloro-1H-indazol-7-yl)(1-(difluoromethyl)cyclobutyl)methanol]: the IC50 in experiment [1], in experiment [2], in experiment [3] and in experiment [4] was 0.0001 to 10 µM in each case.
On to `OC(c1cc(Cl)cc2cn[nH]c12)C1CC2(CCC2)C1` (stereo not drawn) [Compound P-0195, (5-chloro-1H-indazol-7-yl)(spiro[3.3]heptan-2-yl)methanol], for which the IC50 in experiment [1], in experiment [2], in experiment [3] and in experiment [4] was 0.0001 to 10 µM in each case.
Regarding `CC1(C)CC(C(O)c2cc(Cl)cc3cn[nH]c23)C1` (stereo not drawn) [Compound P-0196, (5-chloro-1H-indazol-7-yl)(3,3-dimethylcyclobutyl)methanol], the IC50 in experiment [1], in experiment [2], in experiment [3] and in experiment [4] was 0.0001 to 10 µM each time.
On to `OCC1CCC(C(O)c2cc(Cl)cc3cn[nH]c23)CC1` (stereo not drawn) [Compound P-0197, (5-chloro-1H-indazol-7-yl)(4-(hydroxymethyl)cyclohexyl)methanol], for which the IC50 in experiment [1], in experiment [2], in experiment [3] and in experiment [4] was 0.0001 to 10 µM each time.
In the case of `CC(C)(C1CCN(S(C)(=O)=O)CC1)C(O)c1cc(Cl)cc2cn[nH]c12` (stereo not drawn) [Compound P-0198, 1-(5-chloro-1H-indazol-7-yl)-2-methyl-2-(1-(methylsulfonyl)piperidin-4-yl)propan-1-ol], the IC50 in experiment [1], in experiment [2], in experiment [3] and in experiment [4] was 0.0001 to 10 µM each time.
With `CC(C)(C1CCCC1)C(O)c1cc(Cl)cc2cn[nH]c12` (stereo not drawn) [Compound P-0199, 1-(5-chloro-1H-indazol-7-yl)-2-cyclopentyl-2-methylpropan-1-ol], the IC50 in experiment [1], in experiment [2], in experiment [3] and in experiment [4] was 0.0001 to 10 µM each time.
Consider `OC1(c2cc(Cl)cc3cn[nH]c23)CC(c2ccccc2)C1` (stereo not drawn) [Compound P-0201, 1-(5-chloro-1H-indazol-7-yl)-3-phenylcyclobutan-1-ol], for which the IC50 in experiment [1] was more than 10 µM; in experiment [2] it was 0.0001 to 10 µM; in experiment [3], more than 10 µM; in experiment [4], 0.0001 to 10 µM.
Take `CC(C)(CN1CCCC1)C(O)c1cc(Cl)cc2cn[nH]c12` (stereo not drawn) [Compound P-0202, 1-(5-chloro-1H-indazol-7-yl)-2,2-dimethyl-3-(pyrrolidin-1-yl)propan-l-ol]: the IC50 in experiment [1] is more than 10 µM; in experiment [2], 0.0001 to 10 µM; in experiment [3] it was more than 10 µM; in experiment [4], 10 to 100 µM.
`OC(c1cc(Cl)cc2cn[nH]c12)C(C1CCC1)C1CCC1` (stereo not drawn) [Compound P-0203, 1-(5-chloro-1H-indazol-7-yl)-2,2-dicyclobutylethan-1-ol]: the IC50 in experiment [1], in experiment [2], in experiment [3] and in experiment [4] was 0.0001 to 10 µM in each case.
Regarding `OC(c1cc(Cl)cc2cn[nH]c12)C(C1CC1)C1CC1` (stereo not drawn) [Compound P-0204, 1-(5-chloro-1H-indazol-7-yl)-2,2-dicyclopropylethan-1-ol], the IC50 in experiment [1], in experiment [2], in experiment [3] and in experiment [4] was 0.0001 to 10 µM each time.
Take `CC(O)(c1cc(Cl)cc2cn[nH]c12)C1CCCC1` (stereo not drawn) [Compound P-0205, 1-(5-chloro-1H-indazol-7-yl)-1-cyclopentylethan-1-ol]: the IC50 is more than 10 µM in experiment [1], 10 to 100 µM in experiment [2], 0.0001 to 10 µM in experiment [3] and 10 to 100 µM in experiment [4].
In the case of `OC1(c2cc(Cl)cc3cn[nH]c23)CCC1` [Compound P-0206, 1-(5-chloro-1H-indazol-7-yl)cyclobutan-1-ol], the IC50 was more than 10 µM in experiment [1], 10 to 100 µM in experiment [2], 0.0001 to 10 µM in experiment [3] and 10 to 100 µM in experiment [4].
In the case of `CC1(C(O)c2c(Cl)ccc3cn[nH]c23)CCCCC1` (stereo not drawn) [Compound P-0207, (6-chloro-1H-indazol-7-yl)(1-methylcyclohexyl)methanol], the IC50 in experiment [1] is 0.0001 to 10 µM; in experiment [2], 10 to 100 µM; in experiment [3], 0.0001 to 10 µM; in experiment [4], 0.0001 to 10 µM.
For `OC(c1cc(Cl)cc2cn[nH]c12)C12CCC(CC1)CC2` (stereo not drawn) [Compound P-0208, bicyclo[2.2.2]octan-1-yl(5-chloro-1H-indazol-7-yl)methanol], the IC50 in experiment [1], in experiment [2], in experiment [3] and in experiment [4] was 0.0001 to 10 µM each time.
Turning to `OC(c1cc(Cl)cc2cn[nH]c12)C12CC(C1)C2` (stereo not drawn) [Compound P-0209, bicyclo[1.1.1]pentan-1-yl(5-chloro-1H-indazol-7-yl)methanol], the IC50 in experiment [1], in experiment [2], in experiment [3] and in experiment [4] was 0.0001 to 10 µM each time.
Regarding `OC(CC1CCOCC1)c1cc(Cl)cc2cn[nH]c12` (stereo not drawn) [Compound P-0210, 1-(5-chloro-1H-indazol-7-yl)-2-(tetrahydro-2H-pyran-4-yl)ethan-1-ol], the IC50 in experiment [1], in experiment [2], in experiment [3] and in experiment [4] was 0.0001 to 10 µM in each case.
In the case of `CC1(C(O)c2cc(Cl)cc3cn[nH]c23)COC1` (stereo not drawn) [Compound P-0211, (5-chloro-1H-indazol-7-yl)(3-methyloxetan-3-yl)methanol], the IC50 in experiment [1], in experiment [2], in experiment [3] and in experiment [4] was 0.0001 to 10 µM each time.
Consider `CC(C)(C)C(O)c1cc(Cl)cc2cn[nH]c12` (stereo not drawn) [Compound P-0212, 1-(5-chloro-1H-indazol-7-yl)-2,2-dimethylpropan-1-ol], for which the IC50 in experiment [1], in experiment [2], in experiment [3] and in experiment [4] was 0.0001 to 10 µM each time.
On to `CC(C)(CCC#N)C(O)c1cc(Cl)cc2cn[nH]c12` (stereo not drawn) [Compound P-0213, 5-(5-chloro-1H-indazol-7-yl)-5-hydroxy-4,4-dimethylpentanenitrile], for which the IC50 in experiment [1], in experiment [2], in experiment [3] and in experiment [4] was 0.0001 to 10 µM each time.
For the compound `CC(C)(C)C1CC(O)(c2cc(Cl)cc3cn[nH]c23)C1` (stereo not drawn) [Compound P-0214, 3-(tert-butyl)-1-(5-chloro-1H-indazol-7-yl)cyclobutan-1-ol], the half-inhibitory concentration (IC50) in experiment [1], in experiment [2], in experiment [3] and in experiment [4] was 0.0001 to 10 µM throughout.
Regarding `CC(C)(C(O)c1cc(Cl)cc2cn[nH]c12)N1CCOCC1` (stereo not drawn) [Compound P-0215, 1-(5-chloro-1H-indazol-7-yl)-2-methyl-2-morpholinopropan-1-ol], the half-maximal inhibitory concentration (IC50) in experiment [1], in experiment [2], in experiment [3] and in experiment [4] was 0.0001 to 10 µM each time.
`CC(C)(C(O)c1cc(Cl)cc2cn[nH]c12)N1CCCCC1` (stereo not drawn) [Compound P-0216, 1-(5-chloro-1H-indazol-7-yl)-2-methyl-2-(piperidin-1-yl)propan-1-ol]: the IC50 in experiment [1] is more than 10 µM; in experiment [2] it was 10 to 100 µM; in experiment [3] it was more than 10 µM; in experiment [4], more than 200 µM.
On to `CC(C)(C1CCOCC1)C(O)c1cc(Cl)c(F)c2cn[nH]c12` (stereo not drawn) [Compound P-0217, 1-(5-chloro-4-fluoro-1H-indazol-7-yl)-2-methyl-2-(tetrahydro-2H-pyran-4-yl)propan-1-ol], for which the IC50 in experiment [1], in experiment [2], in experiment [3] and in experiment [4] was 0.0001 to 10 µM in each case.

For orientation: IC50 means the point on the concentration scale where inhibition reaches its midpoint.

The values above are taken from patent US10508085B2, “Compounds and methods for IDO and TDO modulation, and indications therefor” (Plexxikon Inc., priority 2016, dated 2019).
